Experimental data published in ChEMBL document CHEMBL1201862, “PubChem BioAssay data set” (2004).
The source made the active and inactive calls.

Columns and labels:
[1] = molecular target: T1, Beta-2 adrenergic receptor (Homo sapiens, UniProt P07550); assay: Dose response for HTS for Beta-2AR agonists via FAP method from Powderset3.; format: functional
[2] = molecular target: T1, Beta-2 adrenergic receptor; assay: beta2AR agonists driving receptor internalization, dose response, cell-based, FAP fluorogen, flow cytometry, cherry pick 1 (AID 588763); format: functional
[3] = Counterscreen for […] of the human trace amine associated receptor 1 (TAAR1): Fluorescence-based cell-based high throughput dose response assay to identify nonselective Ga16 agonists.; format: functional
[4] = molecular target: T2, Trace amine-associated receptor 1 (Homo sapiens, UniProt Q96RJ0); assay: Fluorescence-based cell-based high throughput dose response assay to identify antagonists of the human trace amine associated receptor 1 (TAAR1).; format: functional
T2 sequence (Q96RJ0 whole entry): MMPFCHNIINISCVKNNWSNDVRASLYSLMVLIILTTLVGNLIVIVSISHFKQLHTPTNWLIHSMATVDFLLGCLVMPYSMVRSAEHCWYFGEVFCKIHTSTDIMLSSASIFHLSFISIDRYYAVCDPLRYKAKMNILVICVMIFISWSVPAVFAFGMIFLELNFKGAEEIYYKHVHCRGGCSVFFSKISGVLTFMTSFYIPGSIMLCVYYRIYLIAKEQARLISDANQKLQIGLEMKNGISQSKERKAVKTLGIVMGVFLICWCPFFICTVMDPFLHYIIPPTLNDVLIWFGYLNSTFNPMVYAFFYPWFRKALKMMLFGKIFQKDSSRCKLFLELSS

[5] = Counterscreen for antagonists of the human trace amine associated receptor 1 (hTAAR1): Fluorescence-based cell-based high throughput dose response assay to identify nonselective Ga16 antagonists.; format: functional
[6] = molecular target: T2, Trace amine-associated receptor 1; assay: Counterscreen for antagonists of the human trace amine associated receptor 1 (hTAAR1): Fluorescence-based cell-based high throughput dose response assay to identify TAAR1 Agonists.; format: functional
[7] = molecular target: T2, Trace amine-associated receptor 1; assay: Counterscreen for agonists of the human trace amine associated receptor 1 (hTAAR1): Fluorescence-based cell-based high throughput dose response assay to identify hTAAR1 agonist that also desensitize TAAR1 receptor response.; format: functional
cells [8] = format: functional, cell-based
[9] = molecular target: T2, Trace amine-associated receptor 1; assay: Fluorescence-based cell-based high throughput dose response assay to identify agonists of the human trace amine associated receptor 1 (TAAR1).; format: functional
cells [10] = format: functional, cell-based; remark: listed apart in the source
[11] = CFTR ΔF508 corrector activity in bronchial cells, dose response, human bronchial epithelial cells, plate reader, cherry-pick, two tests (AID 743267); format: functional, cell-based
Beta Lactamase = Beta Lactamase (Pseudomonas aeruginosa, UniProt Q932Y6);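 note: confirmatory high-throughput screen measuring VIM-2 metallo-beta-lactamase inhibition by epi-absorbance in dose response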
Sequence of Beta Lactamase (Q932Y6 whole entry): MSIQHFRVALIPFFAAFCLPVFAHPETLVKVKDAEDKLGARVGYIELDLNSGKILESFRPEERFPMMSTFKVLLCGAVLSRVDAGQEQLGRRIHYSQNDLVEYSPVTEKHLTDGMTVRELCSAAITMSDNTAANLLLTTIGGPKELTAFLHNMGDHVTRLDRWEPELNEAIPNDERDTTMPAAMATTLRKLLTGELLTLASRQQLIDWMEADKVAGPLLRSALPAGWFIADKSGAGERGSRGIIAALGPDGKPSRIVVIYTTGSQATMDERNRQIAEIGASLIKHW

ORF 73 = ORF 73 (Human herpesvirus 8, UniProt O40947); assay: inhibitors of C-LANA binding to LBS DNA, dose response, biochemical, fluorescence polarization, cherry-picked samples (AID 504725); set-up: species or system Human gammaherpesvirus 8;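 note: fluorescence polarization of a labeled DNA duplex reporting LANA DNA binding; potency is for inhibitors that block LANA binding to the DNA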
Sequence of ORF 73 (O40947 whole entry): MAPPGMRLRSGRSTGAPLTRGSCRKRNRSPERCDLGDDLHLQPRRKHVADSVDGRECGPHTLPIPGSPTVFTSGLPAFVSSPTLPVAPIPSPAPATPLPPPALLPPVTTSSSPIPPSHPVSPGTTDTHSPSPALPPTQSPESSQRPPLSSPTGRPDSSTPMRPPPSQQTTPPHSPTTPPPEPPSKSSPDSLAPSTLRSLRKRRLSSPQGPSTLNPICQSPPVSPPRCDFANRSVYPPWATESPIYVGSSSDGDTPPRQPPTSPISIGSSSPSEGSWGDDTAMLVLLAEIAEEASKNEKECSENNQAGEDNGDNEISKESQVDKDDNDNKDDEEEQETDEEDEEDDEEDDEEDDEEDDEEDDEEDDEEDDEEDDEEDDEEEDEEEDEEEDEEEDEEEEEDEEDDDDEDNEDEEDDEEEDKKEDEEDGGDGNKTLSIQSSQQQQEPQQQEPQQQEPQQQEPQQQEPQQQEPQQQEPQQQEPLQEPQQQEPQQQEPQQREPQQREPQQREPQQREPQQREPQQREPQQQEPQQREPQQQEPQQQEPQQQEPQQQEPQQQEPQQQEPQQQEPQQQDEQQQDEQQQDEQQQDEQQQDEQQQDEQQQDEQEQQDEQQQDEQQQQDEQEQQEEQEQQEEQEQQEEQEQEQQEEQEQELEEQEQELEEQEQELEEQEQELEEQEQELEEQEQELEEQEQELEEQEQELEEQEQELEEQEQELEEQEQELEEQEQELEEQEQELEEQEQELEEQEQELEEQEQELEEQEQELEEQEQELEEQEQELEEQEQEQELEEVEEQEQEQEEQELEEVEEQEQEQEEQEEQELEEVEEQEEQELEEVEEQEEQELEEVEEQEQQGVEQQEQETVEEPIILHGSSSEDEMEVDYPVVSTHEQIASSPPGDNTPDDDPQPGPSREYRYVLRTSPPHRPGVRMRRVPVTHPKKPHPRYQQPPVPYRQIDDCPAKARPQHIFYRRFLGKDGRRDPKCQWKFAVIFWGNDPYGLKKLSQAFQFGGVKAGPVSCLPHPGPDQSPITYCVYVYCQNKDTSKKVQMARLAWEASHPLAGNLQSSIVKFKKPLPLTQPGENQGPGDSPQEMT

Beta-lactamase [12] = molecular target: Beta-lactamase (Pseudomonas aeruginosa, UniProt Q79MP6);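 note: biochemical dose-response test of metallo-beta-lactamase enzyme inhibition, read out by epi-absorbance; purified recombinant IMP-1 metallo-beta-lactamase with nitrocefin as substrate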
Sequence of Beta-lactamase (Pseudomonas aeruginosa, UniProt Q79MP6) (Q79MP6 whole entry): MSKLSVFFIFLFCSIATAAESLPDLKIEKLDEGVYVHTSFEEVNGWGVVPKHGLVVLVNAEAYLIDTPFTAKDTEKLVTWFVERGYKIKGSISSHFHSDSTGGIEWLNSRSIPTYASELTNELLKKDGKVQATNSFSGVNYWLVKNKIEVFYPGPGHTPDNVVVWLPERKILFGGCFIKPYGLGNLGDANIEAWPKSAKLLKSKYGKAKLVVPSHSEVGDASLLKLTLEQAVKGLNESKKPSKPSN

Beta-lactamase [13] = molecular target: Beta-lactamase (Salmonella choleraesuis (strain SC-B67), UniProt Q5J463)
Sequence of Beta-lactamase (Salmonella choleraesuis (strain SC-B67), UniProt Q5J463) (Q5J463 whole entry, the tested form may be a part): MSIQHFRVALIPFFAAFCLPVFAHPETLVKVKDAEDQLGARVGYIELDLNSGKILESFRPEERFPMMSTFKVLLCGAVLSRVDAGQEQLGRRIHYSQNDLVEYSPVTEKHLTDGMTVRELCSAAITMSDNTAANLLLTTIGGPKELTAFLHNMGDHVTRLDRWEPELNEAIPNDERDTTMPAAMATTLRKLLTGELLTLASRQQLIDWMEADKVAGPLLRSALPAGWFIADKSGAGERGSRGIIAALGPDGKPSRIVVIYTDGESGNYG

[14] = molecular target: T3, Tyrosine-protein phosphatase non-receptor type 22 (Homo sapiens, UniProt Q9Y2R2); assay: LYP phosphatase inhibition for selectivity, dose response, selectivity assay for LMPTP inhibitor project, biochemical, fluorescence, LYP catalytic domain (AID 652006); format: functional; settings: read-out: IC50_Mean
T3 sequence (Q9Y2R2 whole entry): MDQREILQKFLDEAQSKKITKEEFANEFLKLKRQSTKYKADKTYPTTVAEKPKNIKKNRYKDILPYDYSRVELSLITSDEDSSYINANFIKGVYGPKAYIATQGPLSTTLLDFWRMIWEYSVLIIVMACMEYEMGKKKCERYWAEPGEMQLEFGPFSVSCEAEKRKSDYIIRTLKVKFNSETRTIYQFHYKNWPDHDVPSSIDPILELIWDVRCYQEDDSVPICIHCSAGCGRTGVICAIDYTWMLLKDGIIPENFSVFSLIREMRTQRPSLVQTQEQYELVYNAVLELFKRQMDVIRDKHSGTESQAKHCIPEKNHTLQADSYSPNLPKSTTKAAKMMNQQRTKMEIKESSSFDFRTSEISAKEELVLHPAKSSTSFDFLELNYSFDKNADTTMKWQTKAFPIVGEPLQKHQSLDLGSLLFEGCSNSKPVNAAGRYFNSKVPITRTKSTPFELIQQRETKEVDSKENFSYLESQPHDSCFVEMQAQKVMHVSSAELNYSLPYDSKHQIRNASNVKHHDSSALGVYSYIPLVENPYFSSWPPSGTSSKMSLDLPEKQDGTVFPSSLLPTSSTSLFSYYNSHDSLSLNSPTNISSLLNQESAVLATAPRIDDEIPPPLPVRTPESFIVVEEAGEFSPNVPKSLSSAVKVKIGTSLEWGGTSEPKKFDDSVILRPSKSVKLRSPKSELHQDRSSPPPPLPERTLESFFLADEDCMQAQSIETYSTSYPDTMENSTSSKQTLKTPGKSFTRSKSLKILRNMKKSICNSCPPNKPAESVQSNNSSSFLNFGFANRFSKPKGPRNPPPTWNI

[15] = molecular target: T4, DNA repair protein RAD52 homolog (Homo sapiens, UniProt P43351); format: functional, biochemical
T4 sequence (P43351 whole entry): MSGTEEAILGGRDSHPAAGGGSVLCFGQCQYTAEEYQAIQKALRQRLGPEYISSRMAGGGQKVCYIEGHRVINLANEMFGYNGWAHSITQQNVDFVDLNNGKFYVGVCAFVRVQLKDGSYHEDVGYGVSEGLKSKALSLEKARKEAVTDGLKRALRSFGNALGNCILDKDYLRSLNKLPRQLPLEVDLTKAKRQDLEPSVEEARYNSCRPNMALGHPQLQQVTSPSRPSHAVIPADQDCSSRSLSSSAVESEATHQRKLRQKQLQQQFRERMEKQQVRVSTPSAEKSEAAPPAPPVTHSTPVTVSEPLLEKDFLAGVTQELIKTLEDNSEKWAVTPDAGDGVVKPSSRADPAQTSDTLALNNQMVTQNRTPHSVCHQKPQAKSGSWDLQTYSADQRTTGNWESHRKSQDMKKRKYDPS

[16] = molecular target: T5, Low molecular weight phosphotyrosine protein phosphatase (Homo sapiens, UniProt P24666); format: functional; settings: read-out: IC50_Mean;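 note: Dose-response confirmation assay measuring inhibition of LMPTP enzyme activity by fluorescence intensity read-out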
T5 sequence (P24666 whole entry): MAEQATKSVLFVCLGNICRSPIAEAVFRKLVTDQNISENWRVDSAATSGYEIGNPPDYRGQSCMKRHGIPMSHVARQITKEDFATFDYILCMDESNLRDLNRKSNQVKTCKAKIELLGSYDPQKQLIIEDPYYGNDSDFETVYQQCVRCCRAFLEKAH

[17] = molecular target: Matrix metalloproteinase-14 (Homo sapiens, UniProt P50281); assay: Dose Response confirmation of uHTS hits for a small molecule inhibitors of MT1-MMP activation in a fluorescence assay set 2.; format: functional
[18] = molecular target: Palmitoyl-protein thioesterase ABHD10, mitochondrial (Mus musculus, UniProt Q6PE15); assay: Late stage assay provider results from the probe development effort to identify inhibitors of PME-1: fluorescence-based dose response biochemical gel-based competitive Activity-Based Protein Profiling (ABPP) inhibition of ABHD10 Set 1.; format: functional
Sequence of Palmitoyl-protein thioesterase ABHD10, mitochondrial (Q6PE15 whole entry): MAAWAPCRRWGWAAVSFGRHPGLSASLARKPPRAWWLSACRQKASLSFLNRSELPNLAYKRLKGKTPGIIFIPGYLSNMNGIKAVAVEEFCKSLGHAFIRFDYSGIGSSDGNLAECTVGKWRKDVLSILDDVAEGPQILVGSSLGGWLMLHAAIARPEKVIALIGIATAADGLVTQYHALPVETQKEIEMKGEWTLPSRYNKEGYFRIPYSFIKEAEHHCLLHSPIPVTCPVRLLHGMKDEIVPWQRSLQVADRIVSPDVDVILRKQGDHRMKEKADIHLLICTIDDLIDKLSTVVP

[19] = intracellular Trypanosoma cruzi inhibitors in host cells – cell-based, plate reader, cherry-pick samples, set 3, dose response (AID 651818); format: functional;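 note: compounds incubated with infected cells for about four days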
[20] = NIH/3T3 fibroblast cytotoxicity, dose response, cytotoxicity control for T. cruzi growth inhibitor project, cell-based, cherry-pick samples, set 2 (AID 651817); format: functional; settings: NIH3T3
[21] = molecular target: T6, Sentrin-specific protease 8 (Homo sapiens, UniProt Q96LD8); format: functional
T6 sequence (Q96LD8 whole entry): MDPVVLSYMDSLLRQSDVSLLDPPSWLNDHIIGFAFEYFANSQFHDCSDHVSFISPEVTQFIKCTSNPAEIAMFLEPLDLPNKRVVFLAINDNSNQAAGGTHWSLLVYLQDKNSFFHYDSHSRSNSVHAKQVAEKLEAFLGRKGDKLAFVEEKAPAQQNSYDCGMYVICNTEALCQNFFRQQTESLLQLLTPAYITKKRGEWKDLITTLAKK

[22] = molecular target: T6, Sentrin-specific protease 8; format: functional; remark: listed apart in the source
[23] = HEK293 cell viability, dose response, counter-screen for EBV LMP1 inhibitor project, dry powder, set 2 (AID 624374); format: functional

T1 sequence (P07550 whole entry): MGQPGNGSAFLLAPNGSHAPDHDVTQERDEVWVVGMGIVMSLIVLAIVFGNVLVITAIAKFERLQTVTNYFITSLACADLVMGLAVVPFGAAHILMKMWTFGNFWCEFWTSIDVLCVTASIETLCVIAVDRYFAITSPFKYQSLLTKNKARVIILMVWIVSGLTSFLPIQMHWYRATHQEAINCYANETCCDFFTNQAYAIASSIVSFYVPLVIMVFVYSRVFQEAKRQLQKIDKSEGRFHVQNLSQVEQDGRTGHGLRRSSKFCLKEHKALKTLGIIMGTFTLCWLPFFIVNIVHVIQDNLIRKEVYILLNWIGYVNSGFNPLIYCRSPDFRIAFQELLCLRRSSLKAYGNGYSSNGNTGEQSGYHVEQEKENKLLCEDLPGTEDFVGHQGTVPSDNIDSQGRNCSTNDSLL

With `CC(Sc1nc(-c2ccccc2)cc(C(F)(F)F)n1)C(=O)N1CCOCC1` (stereo not given) the EC50 [1] was 0.0143 µM (active) and the EC50 [2] was 0.0435 µM (active).
In the case of `O=C(Nc1cccnc1)c1ccc(COc2ccccc2Br)cc1`, the EC50 [3] is reported as > 29.9 µM (inactive), the IC50 [4] is reported as 4.17 µM (active) and the IC50 [5] is reported as > 29.9 µM (inactive). For the same compound, the EC50 [6] was > 29.9 µM (inactive).
For `O=C(NCCc1ccccc1)C(=O)NCC1OCCN1S(=O)(=O)c1ccc2c(c1)OCCO2` (stereo not given), the IC50 [7] was 8.98 µM (active), the EC50 (cells [8]) was > 29.9 µM (inactive) and the EC50 [9] was 5.13 µM (active). The IC50 (cells [10]) was > 29.9 µM (inactive).
In the case of `COc1cc(/C=C(\CC(=O)O)c2nc3ccccc3s2)ccc1OCC(=O)Nc1ccccc1F`, the AC50 [11] is reported as 58.5 µM (active).
With `CN(C)c1ccc(/C=N/N(CCO)C2=NS(=O)(=O)c3ccccc32)cc1` the IC50 (Beta Lactamase) was 9.4 µM (active), the AC50 (ORF 73) was 1 µM (active) and the IC50 (Beta-lactamase [12]) was 8.93 µM (active). The IC50 (Beta-lactamase [13]) was 6.94 µM (active).
With `CN1/C(=C/C=C/c2n(C)c3cc([N+](=O)[O-])c([N+](=O)[O-])cc3[n+]2C)C(C)(C)c2ccccc21` the IC50 [14] was 42.2 µM (inactive), the AC50 [15] was 18.4 µM (active) and the IC50 [16] was 20.1 µM (inactive). The IC50 [17] was 6.17 µM (active).
In the case of `CC[C@@]1(c2ccccc2)C(=O)N(C(=O)OC(C)C)N1C(=O)OC(C)C`, the IC50 [18] is reported as 0.13 µM (active).
With `C[C@H](CO)N1C[C@H](C)[C@@H](CN(C)Cc2ccc(Cl)c(Cl)c2)Oc2c(NC(=O)Nc3ccc(C(F)(F)F)cc3)cccc2C1=O` the AC50 [19] was 3.08 µM (active) and the AC50 [20] was 10.2 µM (active).
In the case of `Nc1cc(N)cc(C(=O)c2ccccc2)c1`, the IC50 [21] is reported as 10.4 µM (active) and the IC50 [22] is reported as 13.8 µM (active).
`COC(=O)C[C@H]1C[C@H]2c3cc(NC(=O)CN(C)C)ccc3O[C@H]2[C@H](CO)O1` showed an AbsAC35 [23] of 110.27 µM.
